The results in this text go back to patent publication US9133231B2, “Compounds for treating bacterial infections” (Yissum Research Development Company of the Hebrew …, priority 2010, dated 2015).

What all share (assay type): cell-based
Series [1] has as its system A431 Epidermoid carcinoma cells. The experiment in a line: MTT cytotoxicity assay on A431 cells. The note with it: 72 hours incubation, up to 10 different concentrations, FIG. 8. The method, then: (§1) Cytotoxicity of compound A2 on eukaryotic (A431) and prokaryotic cells (B. Subtilis) was determined by using the methylthiazolyldiphenyl-tetrazolium bromide (MTT) assay. Bacteria were grown in CH medium and samples were taken and plated on LB plates after 24 hours of growth. The plates were incubated at 37° C. for 15 hours. Colony forming units (CFU) were counted and compared to the untreated culture. Viable bacterial cells are counted as CFU/mL: colony forming units per milliliter. Each CFU is equivalent to viable cell.
In a standard procedure, the cell line (A431: epidermoid carcinoma) was incubated for 24 hours in 37° C. and 5% CO2. Subsequently, compound A2 was added to the wells in up to 10 different concentrations. Subsequent to incubation of cells with A2 for an additional 72 hours, the MTT reagent was added.
(Tetrazolium assays rely on reduction of a dye to a coloured formazan, in cell work by metabolically active cells.)

The subject of series [2] is B. subtilis. The experiment in a line: Mature spore formation after induced sporulation (heat shock, CFU count). The method, then: Cells were grown to an OD600 of 0.5. They were then washed with synthetic medium on a membrane filter and suspended in synthetic medium lacking amino acids in order to induce them to sporulate in the presence and the absence of inhibitors. Sporulation was monitored by fluorescence microscopy.
In order to further evaluate the effect of compounds A2 on sporulation, wild type bacteria were induced to sporulate in the presence of different concentrations (from 200 to 1.8 mM) of compound A2 and the process was monitored using fluorescence microscopy. With the aim of learning about the fate of the spores formed in the previously described cultures, an aliquot from the cell culture was taken and subjected to heat treatment (heat shock). The treatment included exposure of the cultures to 80° C. for 15 minutes and further plating on LB plates. After incubating the plates for 15 hours at 37° C., the colony forming units (CFUs) were quantified and the percent of mature spore formation was calculated (FIG. 2B-C).
The influence of the timing of addition of A2 was evaluated. Bacteria were induced to sporulate and A2 (1.8 mM) was added to the cultures every two hours (at T=0, T=2, T=4 and T=6). After growing overnight the cultures were heated and plated on LB plates.

Series [3] concerns B. subtilis. The experiment in a line: Bacterial survival in CH medium (CFU after 24 hours of growth). The method, then:
Bacteria were grown in CH medium and samples were taken and plated on LB plates after 24 hours of growth. The plates were incubated at 37° C. for 15 hours. Colony forming units (CFU) were counted and compared to the untreated culture.
as §1

Series [4] concerns B. subtilis. The experiment in a line: Growth and survival of B. subtilis growing in LB medium (CFU). The note with it: 1.8 mM added at OD600 of 0.2, LB medium, 37° C.; FIG. 3. As for the experimental part:
The effect of A2 on growth and survival of B. subtilis growing in LB medium was then evaluated. Bacteria were grown overnight at 23° C. and diluted to an OD600 of 0.05. Subsequently, bacteria were further grown at 37° C. and A2 (1.8 mM) was added at an OD600 of 0.2. Bacterial growth was then continuously monitored by measuring the turbidity of the medium at 600 nm (OD600). Samples were taken and plated on LB plates. The plates were incubated at 37° C. for 15 hours. Colony forming units (CFU) were counted and compared to the untreated culture.

Some results are limits rather than exact numbers.

Turning to `CC(C)C(=O)Nc1nc2c(ncn2[C@H]2CC(OC(=O)NCC(=O)NCC(=O)O)[C@@H](COC(=O)NCC(=O)NCC(=O)O)O2)c(=O)[nH]1` (stereo partly shown) [Compound A2], the “cytotoxicity to A431 cells (eukaryotic)” value in series [1] was “not to A431 cells”. In the series with B. subtilis [2] (0.22 mM (lowest tested concentration), heat shock 80° C. 15 minutes, CFU, FIG. 2B-C), the “reduction of the formation of mature spores” value is “about 70%”. Moreover, the inhibition (commonly the drop in the measured response relative to a control, in per cent) at 1800 µM in the series on B. subtilis [2] (Bacillus subtilis, 1.8 mM added at T=0, T=2, T=4 or T=6 after inducing sporulation, in every case, FIG. 7, read-out: inhibition of the formation of mature spores) is > 80%. This compound displayed an inhibition of sporulation in the series on B. subtilis [2] (rest of the tested concentrations (above 0.22 mM, up to 1.8 mM), FIG. 2B-C) of 100%. Besides, the “cytotoxicity to B. Subtilis cells (prokaryotic)” value in the series on B. subtilis [3] (CFU/mL after 24 hours of growth in CH medium, FIG. 8) is recorded as “completely cytotoxic”. The “CFU/mL of the treated cultures” value with B. subtilis [3] (CH medium, after 24 hours of growth, increasing concentrations, FIG. 6) is “decreases in a dose dependent fashion”. Also, the “number of CFUs compared to the untreated culture” value with B. subtilis [4] is “substantially reduced the number of CFUs”.
